From US8106055B2, “Substituted amide compounds” (Gruenenthal GmbH, priority 2007, dated 2012)

Assays:
[1] = target: T1, serotonin (5-HT) reuptake (Rattus norvegicus, UniProt P31652); test: Inhibition of serotonin (5HT) reuptake in synaptosomes from rat brain; format: biochemical; conditions: test concentration of 10 μM
T1 construct: synaptosomes are freshly isolated from areas of the rat brain; from tissue; host or cells: rat brain synaptosomes (P2 fraction)
Summary of the method: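 Compounds screened at 10 μM and reported as percent inhibition of serotonin uptake. Uptake measured in a freshly prepared P2 synaptosomal fraction from rat brain.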

[2] = target: T2, human bradykinin 1 receptor (B1R) (Homo sapiens, UniProt P46663); test: Functional investigation on the human bradykinin 1 receptor (B1R), Ca2+ FLIPR assay in CHO K1 hB1R cells; format: cell-based; conditions: B1R antagonism human; test substance 10 μM; Ca2+ FLIPR, CHO K1 hB1R cells
T2 construct: expressed in transfected cells; host or cells: CHO K1 cells
T2 sequence (P46663 1-353): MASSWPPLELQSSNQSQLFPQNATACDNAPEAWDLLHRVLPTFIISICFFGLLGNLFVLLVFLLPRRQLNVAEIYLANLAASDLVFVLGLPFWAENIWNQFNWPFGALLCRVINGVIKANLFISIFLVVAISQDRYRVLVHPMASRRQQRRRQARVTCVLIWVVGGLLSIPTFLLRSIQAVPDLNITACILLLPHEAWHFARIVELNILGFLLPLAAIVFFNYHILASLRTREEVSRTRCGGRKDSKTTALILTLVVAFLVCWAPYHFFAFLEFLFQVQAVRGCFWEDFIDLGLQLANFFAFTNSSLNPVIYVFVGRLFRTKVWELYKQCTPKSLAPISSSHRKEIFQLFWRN
Summary of the method: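 Fluo-4 Ca2+ readout, peak fluorescence. Stable CHO K1 transfectants; compound pre-incubated 10-20 min, then EC80 agonist—Lys-Des-Arg9-BK for hB1R, Des-Arg9-BK for rB1R. % inhibition vs maximal inhibition; IC50 from multiple concentrations, duplicate/triplicate, ≥2 independent runs.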

T1 sequence (P31652 whole entry): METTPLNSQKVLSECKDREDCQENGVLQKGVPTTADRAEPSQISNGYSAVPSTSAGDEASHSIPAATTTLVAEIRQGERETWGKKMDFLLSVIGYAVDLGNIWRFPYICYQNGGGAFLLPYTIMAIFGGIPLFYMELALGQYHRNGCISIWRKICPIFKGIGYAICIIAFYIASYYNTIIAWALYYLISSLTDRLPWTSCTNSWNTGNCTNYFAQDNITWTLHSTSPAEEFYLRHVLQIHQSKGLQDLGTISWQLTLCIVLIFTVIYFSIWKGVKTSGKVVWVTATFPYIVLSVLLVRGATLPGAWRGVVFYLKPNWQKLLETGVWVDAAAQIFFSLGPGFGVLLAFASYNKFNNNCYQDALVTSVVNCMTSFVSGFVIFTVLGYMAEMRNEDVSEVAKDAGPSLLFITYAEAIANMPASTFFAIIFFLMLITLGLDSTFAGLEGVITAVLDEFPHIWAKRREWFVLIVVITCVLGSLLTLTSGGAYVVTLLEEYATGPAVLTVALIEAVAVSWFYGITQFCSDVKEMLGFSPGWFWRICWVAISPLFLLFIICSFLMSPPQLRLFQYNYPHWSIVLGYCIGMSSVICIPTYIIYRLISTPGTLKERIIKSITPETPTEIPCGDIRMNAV

Row | SMILES | 5-HT (inhibition of reuptake of serotonin, % inhibition) [1] | B1R Ant. h [10 μM] % Inhibition [2]
1 | CN(C)C(c1ccccc1)C1CCC(CNC(=O)COCC2CCCN(S(=O)(=O)c3ccccc3)C2)CC1 (stereo not shown) [Example 129, N((4((dimethylamino)(phenyl)methyl)cyclohexyl)methyl)-2-((1-(phenylsulfonyl)piperidin-3-yl)methoxy)acetamide] | 95% | −5%
2 | Cc1ccc(S(=O)(=O)N(C)CCOCC(=O)NC2CCC(C(c3cccs3)N(C)C)CC2)cc1 (stereo not shown) [Example 168, N-(4-((dimethylamino) (thiophen-2-yl)methyl)cyclohexyl)-2-(2-(N,4-dimethylphenylsulfamido)ethoxy)acetamide] | 85% | −5%
3 | COc1cc(C)c(S(=O)(=O)N(CCOCC(=O)NCC2CCC(C(c3ccccc3)N(C)C)CC2)Cc2ccccc2)c(C)c1C (stereo not shown) [Example 201] | 89% | 76%
4 | CN(C)C(c1cccc(F)c1)C1CCC(CCNC(=O)COCC2CCCN2S(=O)(=O)c2ccc(Cl)c(Cl)c2)CC1 (stereo not shown) [Example 202] | 98% | 48%
5 | COc1ccc(S(=O)(=O)N2CCCCC2CCOCC(=O)NCC2CCC(C(c3cccc(F)c3)N(C)C)CC2)cc1 (stereo not shown) [Example 203] | 93% | 42%
6 | CN(C)C(c1cccc(F)c1)C1CCC(NC(=O)COC2CCN(S(=O)(=O)c3ccc(Cl)cc3)C2)CC1 (stereo not shown) [Example 204] | 86% | 2%
7 | CN(C)C(c1cccc(F)c1)C1CCC(NC(=O)COCCN(C)S(=O)(=O)c2ccc(F)cc2)CC1 (stereo not shown) [Example 205] | 84% | −11%
8 | COc1ccc(S(=O)(=O)N(C)CCOCC(=O)NC2CCC(C(c3cccs3)N(C)C)CC2)cc1OC (stereo not shown) [Example 206] | 84% | −5%
9 | CN(C)C(c1ccc(Cl)cc1)C1CCC(CNC(=O)COCCN(C)S(=O)(=O)c2c(Cl)cccc2Cl)CC1 (stereo not shown) [Example 207] | 72% | 104%
10 | CN(C)C(c1cccc(F)c1)C1CCC(NC(=O)COCCN(C)S(=O)(=O)c2c(Cl)cc(Cl)cc2Cl)CC1 (stereo not shown) [Example 208] | 93% | 89%
11 | CCN(CCOCC(=O)NCCC1CCC(C(c2cccc(F)c2)N(C)C)CC1)S(=O)(=O)c1c(C)cc(OC)c(C)c1C (stereo not shown) [Example 209] | 94% | 64%
12 | CN(C)C(c1cccc(F)c1)C1CCC(NC(=O)COCC2CCCN2S(=O)(=O)c2ccc(Cl)c(Cl)c2)CC1 (stereo not shown) [Example 211] | 90% | 33%
13 | COc1ccc(S(=O)(=O)N2CCCCC2CCOCC(=O)NC2CCC(C(c3ccc(F)cc3)N(C)C)CC2)cc1 (stereo not shown) [Example 212] | 92% | 49%
14 | COc1ccc(S(=O)(=O)N2CCCCC2CCOCC(=O)NCCC2CCC(C(c3cccc(F)c3)N(C)C)CC2)cc1 (stereo not shown) [Example 213] | 98% | 78%
15 | CN(C)C(c1cccs1)C1CCC(CCNC(=O)COC2CCCCC2N(C)S(=O)(=O)c2ccc(Cl)c(Cl)c2)CC1 (stereo not shown) [Example 214] | 83% | −2%
16 | CN(C)C(c1cccc(F)c1)C1CCC(CCNC(=O)COCCN(C)S(=O)(=O)c2ccc(OC(F)(F)F)cc2)CC1 (stereo not shown) [Example 215] | 90% | 1%
17 | Cc1ccc(S(=O)(=O)N2CCC(OCC(=O)NCCC3CCC(C(c4cccc(F)c4)N(C)C)CC3)C2)cc1 (stereo not shown) [Example 216] | 87% | 20%
18 | CN(C)C(c1cccc(F)c1)C1CCC(NC(=O)COCCN(C)S(=O)(=O)c2ccc(Cl)cc2Cl)CC1 (stereo not shown) [Example 217] | 85% | 85%
19 | CN(C)C(c1cccc(F)c1)C1CCC(CCNC(=O)COCCN(C)S(=O)(=O)c2ccc(F)cc2)CC1 (stereo not shown) [Example 218] | 101% | 7%
20 | CN(C)C(c1ccccc1)C1CCC(CNC(=O)COC2CCN(S(=O)(=O)c3ccc(F)cc3)C2)CC1 (stereo not shown) [Example 219] | 96% | −1%
21 | CN(C)C(c1cccc(F)c1)C1CCC(CNC(=O)COCC2CCCN(S(=O)(=O)c3ccccc3)C2)CC1 (stereo not shown) [Example 220] | 95% | 6%

Row | SMILES | 5-HT (inhibition of reuptake of serotonin, % inhibition) [1] | B1R Ant. h [10 μM] % Inhibition [2]
22 | COc1cc(C)c(S(=O)(=O)N2CCCC(OCC(=O)NCCC3CCC(C(c4cccc(F)c4)N(C)C)CC3)C2)c(C)c1C (stereo not shown) [Example 221] | 95% | 21%
23 | COc1cc(C)c(S(=O)(=O)N2CCN(CCOCC(=O)NC3CCC(C(c4ccc(F)cc4)N(C)C)CC3)CC2)c(C)c1C (stereo not shown) [Example 222] | 92% | 54%
24 | COc1cc(C)c(S(=O)(=O)N2CCN(CCOCC(=O)NCC3CCC(C(c4cccc(F)c4)N(C)C)CC3)CC2)c(C)c1C (stereo not shown) [Example 223] | 96% | 52%
25 | COc1ccc(S(=O)(=O)N2CCCC2COCC(=O)NCCC2CCC(C(c3cccc(F)c3)N(C)C)CC2)cc1 (stereo not shown) [Example 224] | 97% | 34%
26 | CN(C)C(c1cccc(F)c1)C1CCC(CNC(=O)COC2CCN(S(=O)(=O)c3ccc(Cl)cc3Cl)C2)CC1 (stereo not shown) [Example 225] | 85% | 51%
27 | Cc1ccc(S(=O)(=O)N(C)CCOCC(=O)NC2CCC(C(c3cccc(F)c3)N(C)C)CC2)cc1 (stereo not shown) [Example 226] | 91% | −4%
28 | Cc1ccc(S(=O)(=O)N(C)CCOCC(=O)NCC2CCC(C(c3cccc(F)c3)N(C)C)CC2)cc1 (stereo not shown) [Example 227] | 86% | 6%
29 | COc1cc(C)c(S(=O)(=O)N(C)CCOCC(=O)NC2CCC(C(c3cccc(F)c3)N(C)C)CC2)c(C)c1 (stereo not shown) [Example 228] | 85% | 104%
30 | CN(C)C(c1cccc(F)c1)C1CCC(CNC(=O)COCCN(C)S(=O)(=O)c2ccc(F)cc2)CC1 (stereo not shown) [Example 229] | 89% | 7%
31 | CN(C)C(c1cccs1)C1CCC(CCNC(=O)COC2CCN(S(=O)(=O)c3ccccc3)CC2)CC1 (stereo not shown) [Example 230] | 94% | −16%
32 | CCN(CCOCC(=O)NCC1CCC(C(c2ccccc2)N(C)C)CC1)S(=O)(=O)c1c(C)cc(OC)c(C)c1C (stereo not shown) [Example 231] | 83% | 9%
33 | COc1cc(C)c(S(=O)(=O)N2CCC(OCC(=O)NCCC3CCC(C(c4cccc(F)c4)N(C)C)CC3)CC2)c(C)c1C (stereo not shown) [Example 232] | 98% | 17%
34 | COc1ccc(S(=O)(=O)N2Cc3ccccc3CC2COCC(=O)NC2CCC(C(c3ccc(F)cc3)N(C)C)CC2)cc1 (stereo not shown) [Example 234] | 95% | 50%
35 | Cc1cc(C)c(S(=O)(=O)N(C)CCOCC(=O)NC2CCC(C(c3cccs3)N(C)C)CC2)c(C)c1 (stereo not shown) [Example 235] | 86% | 31%
36 | COc1cc(C)c(S(=O)(=O)N(C)CCOCC(=O)NC2CCC(C(c3ccccc3)N(C)C)CC2)c(C)c1 (stereo not shown) [Example 239] | 78% | 104%
37 | Cc1ccc(S(=O)(=O)N(C)CCOCC(=O)NCCC2CCC(C(c3cccc(F)c3)N(C)C)CC2)cc1 (stereo not shown) [Example 240] | 87% | 2%
38 | CN(C)C(c1ccc(Cl)cc1)C1CCC(CCNC(=O)COCCN(C)S(=O)(=O)c2ccc(F)cc2)CC1 (stereo not shown) [Example 241] | 102% | 29%
39 | COc1ccc(S(=O)(=O)N(C)CCOCC(=O)NCC2CCC(C(c3ccccc3)N(C)C)CC2)cc1 (stereo not shown) [Example 242] | 77% | 39%
40 | COc1ccc(S(=O)(=O)N2CCCCC2COCC(=O)NC2CCC(C(c3cccs3)N(C)C)CC2)cc1 (stereo not shown) [Example 243] | 73% | 16%
41 | CN(C)C(c1ccc(F)cc1)C1CCC(CCNC(=O)COC2CCCCC2N(C)S(=O)(=O)c2ccc(Cl)c(Cl)c2)CC1 (stereo not shown) [Example 244] | 88% | 21%
